Data reported in patent US10201585B2, “Methods for treatment of atherosclerosis” (Stealth Peptides International, Inc., priority 2012, dated 2019).
Several values for one entry are separate records, joined by “and”; a condition that tells them apart may be missing. Equal values may be shown once. Entries after “also recorded” stand apart in the source; their conditions may differ.

Columns and labels:
[1] = tested on: Apoprotein E deficient mice; assay: En face analysis of atherosclerotic lesions, thoracic aorta (Sudan IV, % of aortic surface covered by lipid); assay type: in vivo; conditions: 12 weeks
From the text: (§1) Apoprotein E deficient mice (Jackson Laboratories, 600 Main Street, Bar Harbor, Me.) were used in this study. The mice were male, 7-8 weeks of age, and between 18-20 g in weight. An initial total cholesterol measurement was made on 30 mice, and the mice were grouped into two groups of 15 to match the total cholesterol measurements. Both groups were fed a “western diet” (40 kcal % butterfat, 0.15% [wt/wt] cholesterol, Harlan Teklad diet TD-88137). Starting at t=0, the control group of 15 mice received vehicle only (phosphate buffered saline at pH 7.4), while the test group of 15 mice received aromatic-cationic peptide reconstituted in phosphate buffered saline. Body weights of the mice were recorded weekly, and mortality checks were performed daily.
(§2) The aromatic-cationic peptide D-Arg-2′6′-Dmt-Lys-Phe-NH2 (sterile lyophilized powder, reconstituted in phosphate buffered saline) was tested. For the 12-week study, test mice received a single, daily dose of the peptide, subcutaneously at 1 mg/kg. Control mice received a single daily dose of vehicle.
(§3) Following the 12 week treatment, mice were euthanized within 48 hours after the last dose by CO2 asphyxiation and the vascular tree was perfused with 5 mL of phosphate buffered saline (pH 7.4). The aorta and aortic sinus were removed for examination. Thoracic aorta were isolated, trimmed of fat, and fixed in formalin for 48-72 hours before analysis. For en face analysis, aortas were laid out and pinned on black matrix for photography, and stained with Sudan IV. Vessels were imaged for surface involvement using a Nikon computerized image analysis system and the percent of the aortic surface area covered by lipid was calculated. Two determinations were done for each image (Quan 1 and Quan 2), and the average was computed. The data were then computed by group and statistically analyzed. Following staining and morphometric analysis, total lipids were extracted from the aortas using the Bligh-Dyer method. WAKO Diagnostics kits (WAKO Diagnostics, Inc., 1600 Bellwood Road Richmond, Va. 23237-1326) were then used to evaluate total cholesterol, free cholesterol, and cholesterol ester. Cholesterol levels were quantitate nad expressed relative to protein levels. Values are expressed as μg lipid per mg protein (see e.g., FIG. 1).

[2] = tested on: Apoprotein E deficient mice; assay: Plasma lipoprotein cholesterol by gel electrophoresis (Spife; HDL-C, LDL-C, VLDL-C); assay type: in vivo
From the text: as §1, §2
Blood was collected every four weeks (orbital plexis) under isoflurane anesthesia (3%) and blood lipids were determined. Plasma lipid analysis was conducted for both groups at t=0, 4, 6, 8, and 12 weeks. Plasma lipid analysis using an autoanalyzer included total cholesterol (TC), triglycerides (Trigs), phospholipids (PL), free cholesterol (FC), and cholesterol ester (CE, by calculation). Gel electrophoresis was used to measure levels of high-density lipoprotein cholesterol (HDL-C), low-density lipoprotein cholesterol (LDL-C), and very low-density lipoprotein cholesterol (VLDL-C).

[3] = tested on: Apoprotein E deficient mice; assay: Thoracic aorta lipids (Bligh-Dyer extraction, WAKO kits; TC, FC, CE per mg protein); assay type: in vivo
From the text: as §1, §2, §3

[4] = tested on: Apoprotein E deficient mice; assay: Total lesion area in aortic root 300 μm across aortic valve (cryosections, lipid staining); assay type: in vivo; set-up: Total lesion area in aortic root 300 μm across aortic valve / Total lesion area in aortic root 300 μm across aortic valve, AVE: unit not given here
From the text: as §1
The aromatic-cationic peptide D-Arg-2′6′-Dmt-Lys-Phe-NH2 (sterile lyophilized powder, reconstituted in phosphate buffered saline) was tested. […]
For the aortic sinus, the heart and approximately 5 mm of the ascending aorta was cut from the remainder of the aorta. […] The sinus was imaged at 5 step levels in the region of interest, i.e., the aortic root, for a total distance of 300 μm and the lipid-staining areas and measured (total cross sectional area) using a Nikon computerized image analysis system. The data were then computed by group and statistically analyzed.

fibroblast cells = assay: Coenzyme Q10 levels in fibroblasts treated with peptide; assay type: cell-based; conditions: 10 nM peptide for 16-24 hours or 5 days, DMEM, versus saline treated (FIG. 5)
Method: Fibroblasts were treated with an aromatic-cationic peptide of the present disclosure, and levels of coenzyme Q10 were evaluated.
Fibroblasts were culture by methods known in the art, and treated with the aromatic-cationic peptide D-Arg-2′6′-Dmt-Lys-Phe-NH2 as shown in Table 11 below. Data represents the average n=3-6.
Coenzyme Q10 levels were evaluated by methods known in the art.

[5] = ApoE deficient mice, western diet, peptide 1 mg/kg s.c. daily, individual mouse (sample 16-30)
[6] = Week 0 (baseline), group mean of 15 test mice, vehicle group 25
[7] = Week 0 (start of treatment, baseline), individual mouse of peptide group (sample 16-30)
[8] = Week 4, individual test mice (sample # 16-30), listed as aromatic-cationic peptide
[9] = Week 8, individual test mice (sample # 16-30), listed as aromatic-cationic peptide
[10] = Week 12, AVE of test mice 16-30
[11] = Week 12, individual test mice (sample # 16-30), listed as aromatic-cationic peptide
[12] = treated versus vehicle at 4, 8 and 12 week time points
[13] = treated versus vehicle, 12 weeks (Table 8, FIG. 2)
[14] = μg lipid per mg protein, peptide 1 mg/kg s.c. daily, 12 weeks, individual mouse (sample 16-30)

D-Arg-2′6′-Dmt-Lys-Phe-NH2
Ave. % of Lesion (average of Quan 1 and Quan 2) [1, 5]: 2.615% and 0.892% and 9.027% and 3.019% and 7.009% and 4.833% and 1.996% and 1.205% and 9.948% and 2.763% and 6.814% and 4.734% and 0.834% and 11.239% and 12.990%
Quan 1 (first determination of % of the aortic surface covered by lipid) [1, 5]: 10.000% and 4.700%
Quan 2 (second determination of % of the aortic surface covered by lipid) [1, 5]: 0.870%
Ave (average % of the surface of the aortas showing lesions, group) ([1]; group mean of 15 test mice, peptide 1 mg/kg s.c. daily, vehicle group 7.189): 5.328%
Atherosclerotic lesions in the aorta (% lesion area), in words ([1]; treated versus vehicle, 1 mg/kg s.c. daily (Table 7, FIG. 1A), 1 mg/kg): reduces; also recorded: lower
Plasma HDL-C, AVE [2, 6]: 28 mg/dL
Plasma VLDL-C, AVE [2, 6]: 26 mg/dL
Plasma LDL-C, AVE ([2]; Week 0 (baseline), group mean of 15 test mice, vehicle group 362): 368 mg/dL
Plasma HDL-C [2, 7]: 19 mg/dL and 34 mg/dL and 32 mg/dL and 37 mg/dL and 35 mg/dL and 21 mg/dL and 38 mg/dL and 41 mg/dL and 6 mg/dL and 31 mg/dL and 26 mg/dL and 39 mg/dL and 22 mg/dL and 29 mg/dL and 8 mg/dL
Plasma LDL-C [2, 7]: 258 mg/dL and 260 mg/dL and 307 mg/dL and 245 mg/dL and 268 mg/dL and 295 mg/dL and 304 mg/dL and 474 mg/dL and 287 mg/dL and 352 mg/dL and 380 mg/dL and 481 mg/dL and 410 mg/dL and 432 mg/dL and 773 mg/dL
Plasma VLDL-C [2, 7]: 25 mg/dL (2×) and 23 mg/dL and 37 mg/dL and 20 mg/dL (2×) and 19 mg/dL and 27 mg/dL and 36 mg/dL and 15 mg/dL and 26 mg/dL and 31 mg/dL and 24 mg/dL and 28 mg/dL and 29 mg/dL
HDL-C, Spife (electrophoresis) ([2]; Week 4, AVE of test mice 16-30): 25 mg/dL
LDL-C, Spife (electrophoresis) ([2]; Week 4, AVE of test mice 16-30): 940 mg/dL
VLDL-C, Spife (electrophoresis) ([2]; Week 4, AVE of test mice 16-30): 33 mg/dL
HDL-C, Spife (electrophoresis) [2, 8]: 18 mg/dL and 20 mg/dL (3×) and 0 mg/dL and 13 mg/dL and 7 mg/dL and 23 mg/dL and 32 mg/dL (3×) and 15 mg/dL and 45 mg/dL and 44 mg/dL and 49 mg/dL
LDL-C, Spife (electrophoresis) [2, 8]: 745 mg/dL and 866 mg/dL and 918 mg/dL and 1120 mg/dL and 982 mg/dL and 648 mg/dL and 893 mg/dL and 975 mg/dL and 770 mg/dL and 766 mg/dL and 966 mg/dL and 1147 mg/dL and 874 mg/dL and 1171 mg/dL and 1254 mg/dL
VLDL-C, Spife (electrophoresis) [2, 8]: 35 mg/dL (2×) and 37 mg/dL (2×) and 19 mg/dL and 44 mg/dL (2×) and 18 mg/dL and 23 mg/dL and 39 mg/dL and 41 mg/dL and 28 mg/dL and 31 mg/dL and 30 mg/dL and 32 mg/dL
HDL-C, Spife (electrophoresis) ([2]; Week 8, AVE of test mice 16-30): 32 mg/dL
LDL-C, Spife (electrophoresis) ([2]; Week 8, AVE of test mice 16-30): 1166 mg/dL
VLDL-C, Spife (electrophoresis) ([2]; Week 8, AVE of test mice 16-30): 84 mg/dL
HDL-C, Spife (electrophoresis) [2, 9]: 42 mg/dL and 34 mg/dL and 27 mg/dL and 33 mg/dL and 19 mg/dL (2×) and 8 mg/dL and 45 mg/dL and 16 mg/dL and 32 mg/dL and 41 mg/dL (2×) and 25 mg/dL and 43 mg/dL and 57 mg/dL
LDL-C, Spife (electrophoresis) [2, 9]: 1119 mg/dL and 897 mg/dL and 1392 mg/dL and 1071 mg/dL and 1415 mg/dL and 901 mg/dL and 875 mg/dL and 1378 mg/dL and 922 mg/dL and 856 mg/dL and 1317 mg/dL and 1320 mg/dL and 1025 mg/dL and 1382 mg/dL and 1621 mg/dL
VLDL-C, Spife (electrophoresis) [2, 9]: 101 mg/dL and 73 mg/dL and 86 mg/dL and 79 mg/dL (2×) and 112 mg/dL and 34 mg/dL and 88 mg/dL and 69 mg/dL and 59 mg/dL and 93 mg/dL and 74 mg/dL and 80 mg/dL and 109 mg/dL and 119 mg/dL
HDL-C, Spife (electrophoresis) [2, 10]: 21 mg/dL
LDL-C, Spife (electrophoresis) [2, 10]: 939 mg/dL
VLDL-C, Spife (electrophoresis) [2, 10]: 44 mg/dL
HDL-C, Spife (electrophoresis) [2, 11]: 38 mg/dL and 20 mg/dL (2×) and 10 mg/dL and 41 mg/dL and 21 mg/dL and 5 mg/dL and 31 mg/dL (2×) and 2 mg/dL (2×) and 40 mg/dL and 28 mg/dL and 1 mg/dL and 23 mg/dL
LDL-C, Spife (electrophoresis) [2, 11]: 821 mg/dL and 485 mg/dL and 854 mg/dL and 852 mg/dL and 1328 mg/dL and 693 mg/dL and 611 mg/dL and 692 mg/dL and 962 mg/dL and 896 mg/dL and 1275 mg/dL and 1218 mg/dL and 505 mg/dL and 1203 mg/dL and 1688 mg/dL
VLDL-C, Spife (electrophoresis) [2, 11]: 39 mg/dL and 35 mg/dL and 21 mg/dL (2×) and 43 mg/dL and 71 mg/dL and 32 mg/dL and 33 mg/dL and 26 mg/dL and 63 mg/dL and 76 mg/dL and 36 mg/dL and 30 mg/dL and 83 mg/dL and 46 mg/dL
Plasma LDL-C, in words [2, 12]: reduces
Plasma VLDL-C, in words [2, 12]: reduces
Thoracic aorta FC (free cholesterol), AVE ([3]; group mean of 15 test mice, 12 weeks, vehicle group 7.5): 5.7 µg/mg
Thoracic aorta CE (cholesterol ester), AVE ([3]; group mean of 15 test mice, 12 weeks, vehicle group 22.6): 14.6 µg/mg
Thoracic aorta TC (total cholesterol), AVE ([3]; group mean of 15 test mice, 12 weeks, vehicle group 30.1): 20.4 µg/mg
Cholesterol esters in the thoracic aorta, in words [3, 13]: lower
Free cholesterol in the thoracic aorta, in words [3, 13]: lower
Total cholesterol in the thoracic aorta, in words [3, 13]: lower
Thoracic aorta CE (cholesterol ester) [3, 14]: 13.8 μg/mg and 2.7 μg/mg and 30.3 μg/mg and 14.7 μg/mg and 30.7 μg/mg and 14.1 μg/mg and 4.6 μg/mg (2×) and 5.6 μg/mg (2×) and 28.5 μg/mg and 21.3 μg/mg and 18.6 μg/mg and 11.4 μg/mg and 13.0 μg/mg
Thoracic aorta FC (free cholesterol) [3, 14]: 7.6 μg/mg (2×) and 4.0 μg/mg and 5.1 μg/mg and 3.0 μg/mg (2×) and 8.1 μg/mg and 2.7 μg/mg and 3.5 μg/mg and 14.6 μg/mg and 6.6 μg/mg and 3.8 μg/mg and 3.6 μg/mg and 3.3 μg/mg and 9.5 μg/mg
Thoracic aorta TC (total cholesterol) [3, 14]: 21.4 µg/mg and 6.7 µg/mg and 35.4 µg/mg and 17.7 µg/mg and 38.8 µg/mg and 16.8 µg/mg and 8.1 µg/mg and 20.1 µg/mg and 35.1 µg/mg and 9.4 µg/mg and 24.9 µg/mg and 21.7 µg/mg and 7.9 µg/mg and 19.0 µg/mg and 22.5 µg/mg
Total lesion area in aortic root 300 μm across aortic valve, AVE ([4]; group mean of 15 test mice, 12 weeks, vehicle group 351.77): 282.72
Total (mean) lesion area in the aortic root, in words ([4]; treated versus vehicle, 12 weeks (Table 9, FIG. 3)): reduces; also recorded: lower
Coenzyme Q10 levels in fibroblast cells (fibroblast cells): increased
